The subject of this assay is Tetranychus urticae (Two-Spotted Spider Mite). As to the kind of experiment: Example B1: Tetranychus urticae (Two-Spotted Spider Mite): Feeding/Contact Activity. Type of assay: in vivo. The note with it: foliar, 192 h, application rate of 200 ppm, 8 days after infestation, bean leaf discs on agar, mites of mixed ages, read-out: mortality on mixed population (mobile stages). As to the method:
Example B1: Tetranychus urticae (Two-Spotted Spider Mite): Feeding/Contact Activity
Bean leaf discs on agar in 24-well microtiter plates were sprayed with aqueous test solutions prepared from 10,000 ppm DMSO stock solutions. After drying the leaf discs were infested with a mite population of mixed ages. The samples were assessed for mortality on mixed population (mobile stages) 8 days after infestation.

Turning to `CC(C)(NS(C)(=O)=O)C1CCN(C(=O)c2cc(C#N)c(OCc3ccc4c(c3)OC(F)(F)O4)nc2C(F)F)CC1` [Compound P1.1, N-[1-[1-[5-cyano-6-[(2,2-difluoro-1,3-benzodioxol-5-yl)methoxy]-2-(difluoromethyl)pyridine-3-carbonyl]-4-piperidyl]-1-methyl-ethyl]methanesulfonamide], the mortality at 200 ppm is at least 80%. Regarding `CC(=O)NC1(C2CCN(C(=O)c3cc(C#N)c(OCc4ccc5c(c4)OC(F)(F)O5)nc3C(F)F)CC2)CC1` [Compound P1.6, N-[1-[1-[5-cyano-6-[(2,2-difluoro-1,3-benzodioxol-5-yl)methoxy]-2-(difluoromethyl)pyridine-3-carbonyl]-4-piperidyl]cyclopropyl]acetamide], the mortality at 200 ppm was at least 80%. As for `CC(=O)NC1(C2CCN(C(=O)c3cc(C#N)c(OCc4cc(Cl)ccc4F)nc3C(F)F)CC2)CC1` [Compound P1.18, N-[1-[1-[6-[(5-chloro-2-fluoro-phenyl)methoxy]-5-cyano-2-(difluoromethyl)pyridine-3-carbonyl]-4-piperidyl]cyclopropyl]acetamide], the figure is at least 80%.

These data come from patent publication US20260347335A1, “PESTICIDALLY ACTIVE CYCLIC AMINE COMPOUNDS” (SYNGENTA CROP PROTECTION AG, priority 2022, published 2026).
